Patent US11458079B2, “Sunscreen cosmetic” (JO COSMETICS CO., LTD., priority 2019, dated 2022)
Entries after “also recorded” stand apart in the source; their conditions may differ.

Test: Dissolution in the aqueous phase (C phase) of the O/W cosmetic composition
Type: physicochemical
Conditions: 5.00 mass % in C phase (aqueous phase) of O/W formulation of Comparative Example 4
From the text: (4) The gel emulsion was mixed with the components of C phase (aqueous phase), thereby preparing an O/W cosmetic composition. […] Hydrophobized fine particle titanium oxide” alone, the sunscreen cosmetic of Comparative Example 3 simultaneously containing “9. Trans-resveratrol aglycone,” which was not a polysaccharide, and “7. […] Since it is generally difficult to apply the formulation that could not be produced in such a small lot experiment to mass production, the production of emulsified cosmetic compositions for use in sunscreen containing trans-resveratrol monosaccharide glycoside turned out to be impractical.

OC[C@H]1O[C@@H](Oc2cc(O)cc(/C=C/c3ccc(O)cc3)c2)[C@H](O)[C@@H](O)[C@@H]1O [piceid, Piceid]
Solubility in the aqueous phase / water solubility: could not be dissolved; also recorded: insufficient
Solubility in the aqueous phase / water solubility (listed as resveratrol monosaccharide glycoside): could not be dissolved uniformly
